Measured values: patent publication US20250114383A1, “ADMINISTRATION OF A P[…] BY I[…]” (RESET PHARMACEUTICALS, INC., priority 2022, published 2025)

Experiments:
[1] = Solubility assessment in excipients and vehicles; type: physicochemical
[2] = Two-compartment IV PK model fitted to published human bolus psilocybin IV data; details: psilocin after 1 mg psilocybin IV, fitted estimate
Procedure: All analysis was performed using the software R and RStudio, with models being defined using analytical and ODE solutions.
Systemic PK parameters were derived for published human bolus psilocybin IV data and human infusion simulations were performed over a range of doses to identify infusion regimens that achieved the target profile.
Human IV PK data for psilocin after psilocybin was administered was taken from Hasler et al. “Determination of psilocin and 4-hydroxyindole-3-acetic acid in plasma by HPLC-ECD and pharmacokinetic profiles of oral and intravenous psilocybin in man”. Pharm Acta Helv. 1997 June; 72(3):175-84. Model selection was performed by assessing visual fit to data and the respective model AIC's of a one compartment and two compartment IV PK model. These systemic human PK parameters were then used for human infusion simulations by simulating the PK profiles over a range of doses. The effect of two infusion rates, a faster followed by slower infusion rate was also investigated.
Pharm Acta Helv. 1997 June; 72(3):175-84. It is assumed that the generation of psilocin is instantaneous and complete once psilocybin is absorbed.
An IV two compartment model best described the IV data from FIG. 2. A two-compartment model gave a good description of the raw data capturing the Cmax and terminal phase well, FIG. 3. […]

Row | SMILES | solubility ([1]; in DMSO and NMP) | solubility as a function of pH ([1]; initial trials, 30 mg/g in aqueous vehicles) | k12 [2] [min⁻¹] | k21 [2] [min⁻¹] | solubility ([1]; non-micronised, in all the excipients tested)
1 | CN(C)CCc1c[nH]c2cccc(O)c12 [psilocin, 4-hydroxy-N,N-dimethyltryptamine] | good solubility | higher solubility at acidic pH | 0.176 | 0.0489 | –
2 | CN(C)CCc1c[nH]c2cccc(OP(=O)(O)O)c12 [psilocybin, [3-(2-dimethylaminoethyl)-1H-indol-4-yl]dihydrogen phosphate] | – | – | – | – | poor solubility
